# Values quoted from earlier work, collected in patent US20050065127A1, “2-Alkylidene-19-nor-vitamin D derivatives for the treatment of osteosarcoma” (Pfizer Inc., priority 2003, published 2005).
# System: serum calcium (bone calcium mobilization)
# Conditions: chronic mode, 7 days, rats; 20S compound at 130 pmol/day
structure (smiles),measurement,value
"C=C1[C@H](O)CC(=C/C=C2\CCC[C@]3(C)[C@@H]([C@H](C)CCCC(C)(C)O)CC[C@@H]23)C[C@H]1O [2-Methylene-19-Nor-1,25-(OH)2D3, 1α,25-dihydroxy-2-methylene-19-nor-vitamin D3]","Bone calcium mobilization activity (serum calcium) relative to 1,25-(OH)2D3",10-100 times
